We go through six compounds from patent publication US20250154288A1, “CYTOTOXICITY TARGETING CHIMERAS FOR C-C CHEMOKINE RECEPTOR 2-EXPRESSING CELLS” (GLAXOSMITHKLINE INTELLECTUAL PROPERTY DEVELOPMENT LIMITED, priority 2022, published 2025).

Experiment [1] concerns the target human alpha1 nicotinic acetylcholine (nACh) receptor (Homo sapiens, UniProt P02708+Q07001). As to the kind of experiment: Nicotinic Acetylcholine Receptor Antagonism Assay (IONFlux automated patch clamp). The following applies: for Emax at 100 µM: maximum percentage antagonism at Maximum Concentration of Compound Tested 100 μM, read-out: Maximum Response (%); for IC50: antagonism of nAChR stimulated with acetylcholine, average if several runs. The format is cell-based. On the procedure: Cells expressing human alpha1 nicotinic acetylcholine (nACh) receptor (nAChR) were washed and dissociated using Trypsin containing buffer. Cells were then washed and seeded at a density of 3-5 million cells/mL and allowed to grow for 3 days. Then, 60-80 μL of cells were added to plates and incubated with dose response of an ARM compound of Formula (I) with a top concentration of either 10 μM or 100 μM. The receptor was then stimulated via addition of acetylcholine (ACh) and activation of the receptor was monitored via the IONFlux automated patch clamp system. IonFlux Data Analyzer software was utilized to perform leak subtraction and measure (min) peak current amplitude.
Data processing: (1) Current values recorded for vehicle only applications in individual traps/patterns were subtracted from corresponding current amplitude values for control, test article and control+test article. (2) Control response was calculated as % of the average response of the 3rd out of total 3 ACh (10 mM) applications alone. In rare situations, if the 3rd ACh response was obscured due to technical artifacts, the 2nd and/or 1st ACh (10 mM) application was considered as control. The peak current amplitude generated in the presence of each test article concentration was then used to calculate the % inhibition as compared to control response (10 mM ACh alone). These estimates were further corrected for vehicle response and run down corrected by normalizing with time matched control responses (10 mM ACh alone). The corrected percentages were then fit with a non-linear function in GraphPad Prism 6 (or later versions) to determine the IC50.
Exclusion criteria: (i) any n's with poor recording quality, (ii) control current amplitude <500 pA or (iii) significant outliers, as determined by the Grubbs' test.
ARMs compounds of Formula (I) of the invention were tested for antagonism of the nAChR in the above assay in […] experimental runs and the results are shown in Table 6 below. Antagonistic activity of the compounds of Formula (I) of the invention is reported as an IC50 value (half maximal inhibitory concentration) and the maximum percentage antagonism observed at the highest concentration of compound of Formula (I) tested, as indicated in Table 6. For compounds tested in more than one experimental run, the IC50 value is reported as an average.
On the technique in general: The patch-clamp technique gives a direct electrical read-out from membranes.

Experiment [2] has as its target T1, CHOK1 cells engineered to overexpress human CCR2 (Homo sapiens, UniProt P41597).
T1 construct: expressed in transfected cells; host or cells: CHOK1
The experiment is described as follows: Antibody Dependent Cellular Cytotoxicity (ADCC) Reporter Assay. The following applies: with anti-cotinine antibody (human IgG1 Fc, S239D/I332E); Jurkat FcγRIIIa NFAT-luciferase reporter cells; average if several runs; read-out: ADCC Reporter Assay pEC50 (converted). The format is cell-based. As for the experimental part:
An antibody dependent cellular cytoxocity reporter assay was conducted using the following four assay components: (i) ARM compound of Formula (I) targeting CCR2 (concentrations ranging from 1 pM to 10 μM) (ii) anti-cotinine antibody having a heavy chain sequence of SEQ ID NO: 11 and a light chain sequence of SEQ ID NO: 12 (rabbit variable region with human IgG1 Fc domain containing a DE mutation (S239D/I332E)) (concentrations ranging from 0.01 μg/mL to 200 μg/mL); (iii) target cells: CHOK1 cells engineered to overexpress either human CCR2 (typically 1000-20,000 cells per well) and (iv) reporter cells: Jurkat cells engineered to express FcγRIIIa with the reporter gene luciferase under the control of the NFAT promoter (typically 3000-75,000 cells per well). Reagents were combined in a final volume of 20 μL in a 384-well tissue culture treated plate. All four assay components were incubated together for about 12-18 hours. Thereafter, BioGlo Detection reagent (Promega) was added to the wells to lyse the cells and provide a substrate for the luciferase reporter protein. Luminescence signal was measured on a microplate reader and signal:background was calculated by dividing the signal of a test well by the signal obtained when no heterobivalent compound of Formula (I) was added. EC50 calculations were done using Graphpad Prism Software, specifically a nonlinear regression curve fit (Y=Bottom+(Top−Bottom)/(1+10 ^((Log EC50−X)*HillSlope))).
ARMs compounds of Formula (I) of the invention were tested for ADCC activity in the above assay in or more experimental runs and the results are shown in Table 3 below. Potency of the compounds of Formula (I) of the invention is reported as a pEC50 value. The pEC50 value is the negative log of the EC50 value, wherein the EC50 value is the half maximal effective concentration measured in molar (M). For compounds tested in more than one experimental run, the pEC50 value is reported as an average.

Counter-ions that a name gives are not always drawn.

human alpha1 nicotinic acetylcholine (nACh) receptor, sequence (P02708 21-457): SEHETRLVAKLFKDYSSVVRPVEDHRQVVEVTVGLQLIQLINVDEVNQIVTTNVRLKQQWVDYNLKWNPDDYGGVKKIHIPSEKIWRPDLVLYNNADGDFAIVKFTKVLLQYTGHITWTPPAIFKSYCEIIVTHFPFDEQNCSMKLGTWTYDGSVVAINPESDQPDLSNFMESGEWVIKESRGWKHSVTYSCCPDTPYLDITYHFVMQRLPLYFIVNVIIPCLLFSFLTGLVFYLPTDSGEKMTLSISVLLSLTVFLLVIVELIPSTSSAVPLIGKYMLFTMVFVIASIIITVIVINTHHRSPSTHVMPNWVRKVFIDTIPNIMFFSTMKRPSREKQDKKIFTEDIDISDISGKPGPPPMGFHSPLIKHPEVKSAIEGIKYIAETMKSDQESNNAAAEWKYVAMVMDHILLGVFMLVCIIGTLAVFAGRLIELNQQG
human alpha1 nicotinic acetylcholine (nACh) receptor, sequence (P11230 24-501 partner): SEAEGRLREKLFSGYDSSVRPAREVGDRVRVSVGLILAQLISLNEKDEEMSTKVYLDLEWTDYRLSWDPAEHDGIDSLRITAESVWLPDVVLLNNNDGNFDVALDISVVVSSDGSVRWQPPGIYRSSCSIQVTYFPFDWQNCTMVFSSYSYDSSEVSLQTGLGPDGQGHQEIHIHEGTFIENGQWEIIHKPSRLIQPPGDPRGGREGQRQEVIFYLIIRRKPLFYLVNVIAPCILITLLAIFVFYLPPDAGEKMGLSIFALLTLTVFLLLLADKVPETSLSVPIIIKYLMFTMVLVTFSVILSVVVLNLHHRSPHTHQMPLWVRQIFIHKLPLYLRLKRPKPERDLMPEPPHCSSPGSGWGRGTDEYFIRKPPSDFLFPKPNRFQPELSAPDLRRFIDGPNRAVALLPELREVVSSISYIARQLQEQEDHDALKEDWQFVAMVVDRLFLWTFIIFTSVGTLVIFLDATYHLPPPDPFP
human alpha1 nicotinic acetylcholine (nACh) receptor, sequence (Q07001 22-517): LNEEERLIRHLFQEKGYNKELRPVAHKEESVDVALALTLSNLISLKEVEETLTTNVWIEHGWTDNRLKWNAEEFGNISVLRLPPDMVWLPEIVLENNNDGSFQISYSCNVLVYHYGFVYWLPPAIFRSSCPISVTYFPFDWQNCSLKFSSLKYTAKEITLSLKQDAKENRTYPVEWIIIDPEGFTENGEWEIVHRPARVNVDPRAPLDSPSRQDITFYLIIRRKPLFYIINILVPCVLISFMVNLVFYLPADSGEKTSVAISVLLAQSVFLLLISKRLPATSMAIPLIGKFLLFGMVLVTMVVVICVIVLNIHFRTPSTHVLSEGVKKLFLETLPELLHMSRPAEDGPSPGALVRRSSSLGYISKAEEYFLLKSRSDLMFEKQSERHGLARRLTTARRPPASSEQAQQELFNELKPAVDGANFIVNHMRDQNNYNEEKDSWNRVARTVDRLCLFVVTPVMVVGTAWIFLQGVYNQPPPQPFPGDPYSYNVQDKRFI

Consider `CO[C@@H]1COCC[C@@H]1N[C@@H]1CC[C@](CCCNC(=O)CCOCCOCCO[C@H]2CC[C@H](OCCNC(=O)[C@H]3CC(=O)N(C)[C@@H]3c3cccnc3)CC2)(C(=O)N2CCc3ncc(C(F)(F)F)cc3C2)C1` [Example 20, ((2S,3S)—N-(2-(((1r,4S)-4-(2-(2-(3-((3-((1S,3R)-3-(((3S,4S)-3-Methoxytetrahydro-2H-pyran-4-yl)amino)-1-(3-(trifluoromethyl)-5,6,7,8-tetrahydro-1,6-naphthyridine-6-carbonyl)cyclopentyl)propyl)amino)-3-oxopropoxy)ethoxy)ethoxy)cyclohexyl)oxy)ethyl)-1-methyl-5-oxo-2-(pyridin-3-yl)pyrrolidine-3-carboxamide, Formic acid salt], for which, in experiment [1], the Emax at 100 µM turned out to be 74%. Besides, in experiment [2], the EC50 was 3.98 nM.
One may read the IC50 as the concentration that inhibits the measured activity by half. As to `CO[C@@H]1COCC[C@@H]1N[C@@H]1CC[C@](CCCNC(=O)CCOCCOCCOCCOCCOCCOCCOCCOCCOCCOCCOCCOCCNC(=O)[C@H]2CC(=O)N(C)[C@@H]2c2cccnc2)(C(=O)N2CCc3ncc(C(F)(F)F)cc3C2)C1` [Example 1, (2S,3S)—N-(43-((1S,3R)-3-(((3S,4S)-3-methoxytetrahydro-2H-pyran-4-yl)amino)-1-(3-(trifluoromethyl)-5,6,7,8-tetrahydro-1,6-naphthyridine-6-carbonyl)cyclopentyl)-39-oxo-3,6,9,12,15,18,21,24,27,30,33,36-dodecaoxa-40-azatritetracontyl)-1-methyl-5-oxo-2-(pyridin-3-yl)pyrrolidine-3-carboxamide], in experiment [1], the 50% inhibitory concentration (IC50) was more than 100000 nM and the Emax at 100 µM worked out at 29%. In addition, in experiment [2], the EC50 was 2.51 nM.
On to `CO[C@@H]1COCC[C@@H]1N[C@@H]1CC[C@](COCCNC(=O)[C@H]2CC[C@H](NC(=O)CCCO[C@H]3CC[C@H](OCCNC(=O)[C@H]4CC(=O)N(C)[C@@H]4c4cccnc4)CC3)CC2)(C(=O)N2CCc3ncc(C(F)(F)F)cc3C2)C1` [Example 11, (2S,3S)-N-(2-(((1R,4S)-4-(4-(((1S,4R)-4-((2-(((1S,3R)-3-(((3S,4S)-3-Methoxytetrahydro-2H-pyran-4-yl)amino)-1-(3-(trifluoromethyl)-5,6,7,8-tetrahydro-1,6-naphthyridine-6-carbonyl)cyclopentyl)methoxy)ethyl)carbamoyl)cyclohexyl)amino)-4-oxobutoxy)cyclohexyl)oxy)ethyl)-1-methyl-5-oxo-2-(pyridin-3-yl)pyrrolidine-3-carboxamide], for which, in experiment [1], the half-maximal inhibitory concentration (IC50) was more than 100000 nM and the Emax at 100 µM was determined as 39%. Further, the EC50 in experiment [2] was 2.51 nM.
The like results for `CO[C@@H]1COCC[C@@H]1N[C@@H]1CC[C@](CCCNC(=O)[C@H]2CC[C@@H](NC(=O)CCOCCOCCOCCNC(=O)[C@H]3CC(=O)N(C)[C@@H]3c3cccnc3)CC2)(C(=O)N2CCc3ncc(C(F)(F)F)cc3C2)C1` [Example 17, (2S,3S)—N-(2-(2-(2-(3-(((1R,4s)-4-((3-((1S,3R)-3-(((3S,4S)-3-Methoxytetrahydro-2H-pyran-4-yl)amino)-1-(3-(trifluoromethyl)-5,6,7,8-tetrahydro-1,6-naphthyridine-6-carbonyl)cyclopentyl)propyl)carbamoyl)cyclohexyl)amino)-3-oxopropoxy)ethoxy)ethoxy)ethyl)-1-methyl-5-oxo-2-(pyridin-3-yl)pyrrolidine-3-carboxamide, Formic acid salt] were, in that order, not below 100000 nM, 21% and 6.31 nM.
Turning to `CO[C@H]1COCC[C@H]1N[C@H]1CC[C@@](CCCNC(=O)[C@H]2CC[C@@H](NC(=O)CCOCCOCCNC(=O)CCNC(=O)[C@H]3CC(=O)N(C)[C@@H]3c3cccnc3)CC2)(C(=O)N2CCc3ncc(C(F)(F)F)cc3C2)C1` [Example 19, (2S,3S)—N-(3-((2-(2-(3-(((1s,4s)-4-((3-((1R,3S)-3-(((3R,4R)-3-Methoxytetrahydro-2H-pyran-4-yl)amino)-1-(3-(trifluoromethyl)-5,6,7,8-tetrahydro-1,6-naphthyridine-6-carbonyl)cyclopentyl)propyl)carbamoyl)cyclohexyl)amino)-3-oxopropoxy)ethoxy)ethyl)amino)-3-oxopropyl)-1-methyl-5-oxo-2-(pyridin-3-yl)pyrrolidine-3-carboxamide], in experiment [1], the half-inhibitory concentration (IC50) is more than 100000 nM and the Emax at 100 µM was found to be 8%. Moreover, in experiment [2], the EC50 was 3.16 nM.
For `CO[C@@H]1COCC[C@@H]1N[C@@H]1CC[C@](CCCNC(=O)[C@H]2CC[C@@H](NC(=O)CCCO[C@H]3CC[C@@H](OCCNC(=O)[C@H]4CC(=O)N(C)[C@@H]4c4cccnc4)CC3)CC2)(C(=O)N2CCc3ncc(C(F)(F)F)cc3C2)C1` [Example 4, (2S,3S)-N-(2-(((1S,4R)-4-(4-(((1R,4S)-4-((3-((1S,3R)-3-(((3S,4S)-3-Methoxytetrahydro-2H-pyran-4-yl)amino)-1-(3-(trifluoromethyl)-5,6,7,8-tetrahydro-1,6-naphthyridine-6-carbonyl)cyclopentyl)propyl)carbamoyl)cyclohexyl)amino)-4-oxobutoxy)cyclohexyl)oxy)ethyl)-1-methyl-5-oxo-2-(pyridin-3-yl)pyrrolidine-3-carboxamide, Formic acid salt], in experiment [1], the Emax at 100 µM came to 48%. Besides, the EC50 in experiment [2] was 0.794 nM.
